One assay addresses E. coli RNAP βH526P (Escherichia coli, UniProt P0A8V2, H526P). It counts as biochemical. Conditions: at 2.5 mg/mL; mutation at βH526.
Another assay deals with M. smegmatis RNAP (Mycolicibacterium smegmatis, UniProt P60281). Kind of assay: In vitro transcription on T7A1 promoter template. The format is biochemical. To be noted: performed as with E. coli RNAP, started with ATP.
In another assay the target is wild-type E. coli RNAP (Escherichia coli, UniProt P0A8V2). Kind of assay: In vitro transcription on T7A1 promoter template. It counts as biochemical. Conditions: transcription started with ATP, in the absence of the CpA primer.
The next assay has as its target E. coli RNAP βH526R (Escherichia coli, UniProt P0A8V2, H526R). The format is biochemical. Conditions: at 2.5 mg/mL; mutation at βH526.
The next assay deals with E. coli RNAP βH526Y (Escherichia coli, UniProt P0A8V2, H526Y). It counts as biochemical. To be noted: at 2.5 mg/mL; mutation at βH526.
Assay [1] relates to methicillin-resistant Staphylococcus aureus (MRSA). Kind of assay: Agar dilution MIC. For orientation: Agar dilution tests growth on a series of plates holding different concentrations.
A further assay concerns the target E. coli RNAP βR143A (Escherichia coli, UniProt P0A8V2, R143A). It counts as biochemical. To be noted: βR143A RNAP against wild-type RNAP.

In brackets after ≈: the same amount, converted by molar mass. Bounds are passed on as bounds.

As for `CO[C@H]1/C=C/O[C@@]2(C)Oc3c(C)c(O)c4c(O)c(c(/C=N/N5CCN(C)CC5)c(O)c4c3C2=O)NC(=O)/C(C)=C\C=C\[C@H](C)[C@H](O)[C@@H](C)[C@@H](O)[C@@H](C)[C@H](OC(C)=O)[C@@H]1C` [RIF, rifampicin], the “inhibition of RNAP” value at E. coli RNAP βH526P, against E. coli RNAP βH526R and on E. coli RNAP βH526Y was “no inhibition” each time. In addition, the “synthesis of the trinucleotide (pppApUpC)” value at M. smegmatis RNAP was “partly allowed”. For the same molecule, on wild-type E. coli RNAP, the “formation of the triphosphorylated trinucleotide, pppApUpC” value is “allowed some of its production”. Besides, at wild-type E. coli RNAP, the “inhibition of formation of the first dinucleotide, pppApU” value was determined as 3 fold. For the same molecule, the MIC in assay [1] (S. aureus Bel 97597) is 2 µg/mL (≈ 2.43 µM); in assay [1] (S. aureus Bel 97598), above 128 µg/mL; in assay [1] (S. aureus Fin 54511) it was above 128 µg/mL; in assay [1] (S. aureus Fin 54518), above 128 µg/mL. Also, at E. coli RNAP βR143A, the “effect of the βR143A mutation on sensitivity” value is given as “little effect”.

By MIC is commonly meant the least concentration at which growth counts as inhibited.
